Measured values taken from patent US9580435B2, “Pyrrolo[2,3-D]pyrimidine derivatives as CB2 receptor agonists” (priority 2013, dated 2017).
Read-outs that look alike come from different tables or passages of the source.

Experiments:
human CB2 receptors = biological target: T1, human CB2 receptors (Homo sapiens, UniProt P34972); experiment: functional cAMP assay, CHO cells expressing human CB2 receptors; type: cell-based
T1 construct: expressed in transfected cells; host or cells: CHO cells
Protocol: (§1) CHO cells expressing human CB1 or CB2 receptors are seeded 17-24 hours prior to the experiment 50.000 cells per well in a black 96 well plate with flat clear bottom (Corning Costar #3904) in DMEM (Invitrogen No. 31331), lx HT supplement, with 10% fetal calf serum and incubated at 5% CO2 and 37° C. in a humidified incubator. The growth medium was exchanged with Krebs Ringer Bicarbonate buffer with 1 mM IBMX and incubated at 30° C. for 30 min. Compounds were added to a final assay volume of 100 μl and incubated for 30 min at 30° C. Using the cAMP-Nano-TRF detection kit the assay (Roche Diagnostics) was stopped by the addition of 50 μl lysis reagent (Tris, NaCl, 1.5% Triton X100, 2.5% NP40, 10% NaN3) and 50 μl detection solutions (20 μM mAb Alexa700-cAMP 1:1, and 48 μM Ruthenium-2-AHA-cAMP) and shaken for 2 h at room temperature. The time-resolved energy transfer is measured by a TRF reader (Evotec Technologies GmbH), equipped with a ND:YAG laser as excitation source. The plate is measured twice with the excitation at 355 nm and at the emission with a delay of 100 ns and a gate of 100 ns, total exposure time 10 s at 730 (bandwidth 30 nm) or 645 nm (bandwidth 75 nm), respectively. The FRET signal is calculated as follows: FRET=T730-Alexa730-P(T645-B645) with P=Ru730-B730/Ru645-B645, where T730 is the test well measured at 730 nM, T645 is the test well measured at 645 nm, B730 and B645 are the buffer controls at 730 nm and 645 nm, respectively. cAMP content is determined from the function of a standard curve spanning from 10 μM to 0.13 nM cAMP.
(§2) EC50 values were determined using Activity Base analysis (ID Business Solution, Limited). The EC50 values for a wide range of cannabinoid agonists generated from this assay were in agreement with the values published in the scientific literature.

human CB1 receptors = biological target: T2, human CB1 receptors (Homo sapiens, UniProt P21554); experiment: functional cAMP assay, CHO cells expressing human CB1 receptors; type: cell-based
T2 construct: expressed in transfected cells; host or cells: CHO cells
T2 sequence (P21554 whole entry): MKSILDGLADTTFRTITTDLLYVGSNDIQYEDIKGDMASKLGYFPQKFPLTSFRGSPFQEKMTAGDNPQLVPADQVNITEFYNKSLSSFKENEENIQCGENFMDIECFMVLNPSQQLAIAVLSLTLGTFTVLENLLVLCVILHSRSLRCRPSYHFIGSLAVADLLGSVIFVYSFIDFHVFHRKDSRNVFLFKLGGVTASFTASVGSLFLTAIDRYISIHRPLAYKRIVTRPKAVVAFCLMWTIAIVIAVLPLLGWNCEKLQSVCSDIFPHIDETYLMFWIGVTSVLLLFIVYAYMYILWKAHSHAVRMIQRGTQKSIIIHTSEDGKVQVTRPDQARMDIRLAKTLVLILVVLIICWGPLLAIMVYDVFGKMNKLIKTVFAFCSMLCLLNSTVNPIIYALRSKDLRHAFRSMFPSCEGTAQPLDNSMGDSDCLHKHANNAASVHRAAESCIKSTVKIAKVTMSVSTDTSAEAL
Protocol: as §1, §2

[1] = human EC50, functional cAMP assay, CHO cells expressing human CB2, read-out: EC50:CB2

T1 sequence (P34972 whole entry): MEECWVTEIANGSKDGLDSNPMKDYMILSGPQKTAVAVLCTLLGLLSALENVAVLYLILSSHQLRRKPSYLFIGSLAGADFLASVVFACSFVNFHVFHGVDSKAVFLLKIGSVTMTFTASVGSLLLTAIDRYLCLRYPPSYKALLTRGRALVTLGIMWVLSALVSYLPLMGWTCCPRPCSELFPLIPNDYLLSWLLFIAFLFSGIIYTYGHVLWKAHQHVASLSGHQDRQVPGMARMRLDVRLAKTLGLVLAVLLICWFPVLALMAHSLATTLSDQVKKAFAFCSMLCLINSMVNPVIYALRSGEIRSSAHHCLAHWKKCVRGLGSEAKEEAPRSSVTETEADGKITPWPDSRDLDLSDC

Row | Compound | EC50 (human CB2 receptors) | EC50 (human CB1 receptors) | EC50 (human CB2 receptors; [1])
1 | CC(C)(C)c1nc(N2CCC(O)C2)c2ccn(Cc3ncccc3Cl)c2n1 (stereo not drawn) [Example 30, 1-[2-tert-butyl-7-[(3-chloropyridin-2-yl)methyl]pyrrolo[2,3-d]pyrimidin-4-yl]pyrrolidin-3-ol] | 8.4 nM | > 10000 nM | –
2 | Cc1noc(Cn2ccc3c(N4CCC(O)C4)nc(C(C)(C)C)nc32)n1 (stereo not drawn) [Example 31, 1-[2-tert-butyl-7-[(3-methyl-1,2,4-oxadiazol-5-yl)methyl]pyrrolo[2,3-d]pyrimidin-4-yl]pyrrolidin-3-ol] | – | > 10000 nM | 316 nM
3 | Cc1nonc1Cn1ccc2c(N3CCC(O)C3)nc(C(C)(C)C)nc21 (stereo not drawn) [Example 32, 1-[2-tert-butyl-7-[(4-methyl-1,2,5-oxadiazol-3-yl)methyl]pyrrolo[2,3-d]pyrimidin-4-yl]pyrrolidin-3-ol] | 18.9 nM | > 10000 nM | –
4 | Cc1nnc(Cn2ccc3c(N4CCC(O)C4)nc(C(C)(C)C)nc32)o1 (stereo not drawn) [Example 33, 1-[2-tert-butyl-7-[(5-methyl-1,3,4-oxadiazol-2-yl)methyl]pyrrolo[2,3-d]pyrimidin-4-yl]pyrrolidin-3-ol] | – | > 10000 nM | 350 nM
5 | Cn1nnnc1Cn1ccc2c(N3CCC(O)C3)nc(C(C)(C)C)nc21 (stereo not drawn) [Example 34, 1-[2-tert-butyl-7-[(1-methyltetrazol-5-yl)methyl]pyrrolo[2,3-d]pyrimidin-4-yl]pyrrolidin-3-ol] | – | > 10000 nM | 134 nM
6 | CC(=O)OC1CCN(c2nc(C(C)(C)C)nc3c2ccn3Cc2nnnn2C)C1 (stereo not drawn) [Example 35, [1-[2-tert-butyl-7-[(1-methyltetrazol-5-yl)methyl]pyrrolo[2,3-d]pyrimidin-4-yl]pyrrolidin-3-yl]acetate] | – | > 10000 nM | 278 nM
7 | CC(=O)OC1CCN(c2nc(C(C)(C)C)nc3c2ccn3Cc2cccc(Cl)c2Cl)C1 (stereo not drawn) [Example 36, [1-[2-tert-butyl-7-[(2,3-dichlorophenyl)methyl]pyrrolo[2,3-d]pyrimidin-4-yl]pyrrolidin-3-yl]acetate] | 85.3 nM | > 10000 nM | –
8 | CC(=O)OC1CCN(c2nc(C(C)(C)C)nc3c2ccn3Cc2nonc2C)C1 (stereo not drawn) [Example 37, [1-[2-tert-butyl-7-[(4-methyl-1,2,5-oxadiazol-3-yl)methyl]pyrrolo[2,3-d]pyrimidin-4-yl]pyrrolidin-3-yl]acetate] | 88.7 nM | > 10000 nM | –
9 | CC(C)(C)c1nc(N2CCC(O)C2)c2ccn(Cc3nnnn3C3CC3)c2n1 (stereo not drawn) [Example 38, 1-[2-tert-butyl-7-[(1-cyclopropyltetrazol-5-yl)methyl]pyrrolo[2,3-d]pyrimidin-4-yl]pyrrolidin-3-ol] | – | > 10000 nM | 173 nM
10 | CC(C)(C)c1nc(N2CCC(O)C2)c2ccn([C@@H]3CCOC3)c2n1 (stereo partly drawn) [Example 39, 1-[2-tert-butyl-7-[(3R)-oxolan-3-yl]pyrrolo[2,3-d]pyrimidin-4-yl]pyrrolidin-3-ol] | 35 nM | > 10000 nM | –
11 | CC(C)(C)c1nc(N2CCC(O)C2)c2ccn(Cc3c[nH]nc3C(F)(F)F)c2n1 (stereo not drawn) [Example 40, 1-[2-tert-butyl-7-[[3-(trifluoromethyl)-1H-pyrazol-4-yl]methyl]pyrrolo[2,3-d]pyrimidin-4-yl]pyrrolidin-3-ol] | 35.6 nM | > 10000 nM | –
12 | CC(C)(C)c1nc(N2CCC(F)(F)C2)c2ccn(Cc3c[nH]nc3C(F)(F)F)c2n1 [Example 41, 2-tert-butyl-4-(3,3-difluoropyrrolidin-1-yl)-7-[[3-(trifluoromethyl)-1H-pyrazol-4-yl]methyl]pyrrolo[2,3-d]pyrimidine] | 13.5 nM | 1840 nM | –
13 | CC(C)(C)c1nc(N2CC[C@H](O)C2)c2ccn(Cc3cccc(Cl)c3Cl)c2n1 [Example 42, (3S)-1-[2-tert-butyl-7-[(2,3-dichlorophenyl)methyl]pyrrolo[2,3-d]pyrimidin-4-yl]pyrrolidin-3-ol] | 3.5 nM | > 10000 nM | –
14 | CC(C)(C)c1nc(N2CC[C@H](O)C2)c2ccn(Cc3ccc(F)cc3Cl)c2n1 [Example 43, (3S)-1-[2-tert-butyl-7-[(2-chloro-4-fluorophenyl)methyl]pyrrolo[2,3-d]pyrimidin-4-yl]pyrrolidin-3-ol] | 6.3 nM | > 10000 nM | –
15 | CC(C)(C)c1nc(N2CC[C@H](O)C2)c2ccn(Cc3ccccc3C(F)(F)F)c2n1 [Example 44, (3S)-1-[2-tert-butyl-7-[[2-(trifluoromethyl)phenyl]methyl]pyrrolo[2,3-d]pyrimidin-4-yl]pyrrolidin-3-ol] | 3.3 nM | > 10000 nM | –
16 | CC(C)(C)c1nc(N2CC[C@H](O)C2)c2ccn(Cc3ccccc3S(C)(=O)=O)c2n1 [Example 45, (3S)-1-[2-tert-butyl-7-[(2-methylsulfonylphenyl)methyl]pyrrolo[2,3-d]pyrimidin-4-yl]pyrrolidin-3-ol] | 4.2 nM | > 10000 nM | –
17 | CC(C)(C)c1nc(N2CC[C@H](O)C2)c2ccn(Cc3cccnc3Cl)c2n1 [Example 46, (3S)-1-[2-tert-butyl-7-[(2-chloropyridin-3-yl)methyl]pyrrolo[2,3-d]pyrimidin-4-yl]pyrrolidin-3-ol] | 5.1 nM | > 10000 nM | –
18 | CC(C)(C)c1nc(N2CC[C@H](O)C2)c2ccn(Cc3ncccc3Cl)c2n1 [Example 47, (3S)-1-[2-tert-butyl-7-[(3-chloropyridin-2-yl)methyl]pyrrolo[2,3-d]pyrimidin-4-yl]pyrrolidin-3-ol] | 5.8 nM | > 10000 nM | –
19 | Cc1nonc1Cn1ccc2c(N3CC[C@H](O)C3)nc(C(C)(C)C)nc21 [Example 48, (3S)-1-[2-tert-butyl-7-[(4-methyl-1,2,5-oxadiazol-3-yl)methyl]pyrrolo[2,3-d]pyrimidin-4-yl]pyrrolidin-3-ol] | 8.5 nM | > 10000 nM | –
20 | CC(C)(C)c1nc(N2CC3(COC3)C2)c2ccn(Cc3ncccc3Cl)c2n1 [Example 49, 6-[2-tert-butyl-7-[(3-chloropyridin-2-yl)methyl]pyrrolo[2,3-d]pyrimidin-4-yl]-2-oxa-6-azaspiro[3.3]heptane] | 10.7 nM | 307 nM | –
21 | Cn1nnnc1Cn1ccc2c(N3CC4(COC4)C3)nc(C(C)(C)C)nc21 [Example 50, 6-[2-tert-butyl-7-[(1-methyltetrazol-5-yl)methyl]pyrrolo[2,3-d]pyrimidin-4-yl]-2-oxa-6-azaspiro[3.3]heptane] | – | > 10000 nM | 531 nM
